Data reported in patent publication US4820703A, “PAF-antagonistic thienotriazolodiazepine compounds and pharmaceutical uses thereof” (Yoshitomi Pharmaceutical Industries Ltd., priority 1986, dated 1989).
Values after ≈ are worked out from the molar mass of the structure shown.

What was measured:
[1] = test system: PAF-induced platelet aggregation; test: Inhibitory effect on PAF-induced platelet aggregation in rabbits (in vitro test); format: cell-based; details: Oryctolagus cuniculus, rabbit PRP, PAF 1.8×10^-7 M, 37° C., read-out: Inhibition of PAF-induced platelet aggregation, IC50
Protocol: Blood samples to which was added 0.1 volume of 3.8% sodium citrate were collected from rabbits. Platelet rich plasma (PRP) was prepared by centrifuging the blood sample at 200×g for 10 minutes, and platelet poor plasma (PPP) was prepared by centrifuging the remaining blood sample at 1000×g for 10 minutes.
(§1) Aggregation ability was measured with a turbidimetric device (6-channel NKK Hematracer 1, model PAT-6A) according to the method of G.V.R. Born described in J. Physiology, vol. 168, p. 178 (1963). The aggregometer was adjusted in sensitivity to give light transmission vaues of 0 and 100% for PRP and PPP, respectively. With stirring at 1000 rpm, 0.3 μl of test compound solution or vehicle was added to 0.3 ml of PRP. After the mixture was kept at 37° C. for 2 minutes, to the mixture was added 3 μl PAF (Serdary Research Lab.) at the final concentration of 1.8×10^-7 M and the light transmission was recorded for 5 minutes.
In all experiments, PAF was dissolved in ethanol at the concentration of 100 μg/ml, and, when used, diluted with 0.9% saline solution.
(§2) The inhibition percentage of test compounds on platelet aggregation were calculated from the following formula by measuring the maximal light transmission in the presence and absence of the test compounds. [formula]

[2] = test system: platelet aggregation; test: Inhibitory effect on platelet aggregation in rabbits (ex vivo test); parameters: species or system rabbit; details: 3 animals
Protocol: as §1, §2
Test compound was orally administered to rabbit instead of adding it to PRP as in vitro test of Experiment 1, and then the citrated blood samples (9 volumes of blood+1 volume of 3.8% sodium citrate) were collected with the passage of time. Then, the blood samples were employed to determine the inhibitory effect at 1, 3, 6 and 24 hours after the administration of test compounds, respectively, according to Experiment 1.

[3] = test system: PAF-induced lethal shock; test: Effect on PAF-induced lethal shock in mice; format: in vivo, mice (male ICR); details: 80 μg/kg PAF i.v., 24 hours
Protocol: The experiment was carried out according to the method of Young et al. described in Prostaglandins, vol. 30, p. […] Groups of 9 to 15 male ICR mice (Charles River) weighing 25-30 g were used. 80 μg/kg of PAF (Serdary Research Lab.) solution was intravenously administered in a lateral tail vein 1 hour after the oral administration of test compound (0.1 ml/10 g). […] Results were given as number of survivors/number of employed animals and survival rates (%) in Table 3.

[4] = test system: PAF-induced foot edema; test: Effect on PAF edema (PAF-induced foot edema in rats); format: in vivo, rats (male Donryu); details: 1 hour after PAF 5 μg s.c.
Protocol: The experiment was carried out according to the method of Swingle et al. described in Agents and Actions, vol. 18, p. 359 (1986). Groups of five male Donryu rats weighing about 150 g were used. One hour after the oral administration of test compound (25 ml/kg), 5 μg/0.05 ml of PAF solution was subcutaneously injected to the paw of the right hind leg. The foot volume of the hind leg was measured 1 hour after the injection. The increasing ratios of foot volume before and after PAF injection were calculated.

[5] = test system: benzodiazepine receptor; details: well-known; cited from earlier work
[6] = test system: central system; details: U.S. Pat. No. 3,904,641; cited from earlier work
[7] = test system: platelet-activating factor (PAF); details: literature (Japan. J. Pharmacol. 1987; EP-A 194416); cited from earlier work
[8] = 3 mg/kg p.o., 1 hour after administration
[9] = 3 mg/kg p.o., 3 hours after administration
[10] = 3 mg/kg p.o., 6 hours after administration
[11] = 3 mg/kg p.o., 24 hours after administration

Q: For `Cc1nnc2n1-c1sc(CCc3ccc(CC(C)C)cc3)cc1C(c1ccccc1Cl)=NC2` [Compound A, 4-(2-chlorophenyl)-2-[2-(4-isobutylphenyl)ethyl]-9-methyl-6H-thieno[3,2-f][1,2,4]triazolo[4,3-a][1,4]diazepine], which IC50 [1] is on record?
A: The IC50 was 0.003 to 0.01 µg/mL (≈ 0.00631 to 0.021 µM).

Q: What about the “% of inhibition” value [2, 8] of the same compound?
A: The value was 97±3%.

Q: And the “% of inhibition” value [2, 9]?
A: Its value is 100±0%.

Q: What about the “% of inhibition” value [2, 10] of the same compound?
A: The value was 100±0%.

Q: What about the “% of inhibition” value [2, 11] of the same compound?
A: The value was 100±0%.

Q: And the Survival rate ([3]; 3.0 mg/kg p.o.)?
A: Its Survival rate is 100.0%.

Q: What about the “number of survivors/number of employed animals” value ([3]; 3.0 mg/kg p.o.) of the same compound?
A: Its value is 9/9.

Q: And the “Inhibition (foot edema)” value ([4]; 0.3 mg/kg oral)?
A: The value was 31%.

Q: What about the “Inhibition (foot edema)” value ([4]; 1 mg/kg oral) of the same compound?
A: The value was 51%.

Q: What about the “Inhibition (foot edema)” value ([4]; 3 mg/kg oral) of the same compound?
A: The value was 59%.

Q: With `Cc1ccc(CCc2cc3c(s2)-n2c(C)nnc2CN=C3c2ccccc2Cl)cc1` [Compound B, 4-(2-chlorophenyl)-2-[2-(4-methylphenyl)ethyl]-9-methyl-6H-thieno[3,2-f][1,2,4]triazolo[4,3-a][1,4]diazepine] as the compound, how does the IC50 [1] read?
A: The IC50 was 0.01 to 0.03 µg/mL (≈ 0.0231 to 0.0693 µM).

Q: Which results are given for `Cc1nnc2n1-c1sc(CCCCc3ccc(CC(C)C)cc3)cc1C(c1ccccc1Cl)=NC2` [Compound C, 4-(2-chlorophenyl)-2-[4-(4-isobutylphenyl)butyl]-9-methyl-6H-thieno[3,2-f][1,2,4]triazolo[4,3-a][1,4]diazepine]?
A: IC50 [1]: 0.03 to 0.1 µg/mL (≈ 0.0596 to 0.199 µM); Survival rate ([3]; 3.0 mg/kg p.o.): 100.0%; number of survivors/number of employed animals ([3]; 3.0 mg/kg p.o.): 9/9

Q: With `COc1ccc(CCc2cc3c(s2)-n2c(C)nnc2CN=C3c2ccccc2Cl)cc1` [Compound D, 4-(2-chlorophenyl)-2-[2-(4-methoxyphenyl)ethyl]-9-methyl-6H-thieno[3,2-f][1,2,4]triazolo[4,3-a][1,4]diazepine] as the compound, how does the IC50 [1] read?
A: Its IC50 is 0.01 to 0.03 µg/mL (≈ 0.0223 to 0.0668 µM).

Q: With `CCCCc1ccc(CCc2cc3c(s2)-n2c(C)nnc2CN=C3c2ccccc2Cl)cc1` [Compound E, 4-(2-chlorophenyl)-2-[2-(4-n-butylphenyl)ethyl]-9-methyl-6H-thieno[3,2-f][1,2,4]triazolo[4,3-a][1,4]diazepine] as the compound, how does the IC50 [1] read?
A: The IC50 was 0.01 µg/mL (≈ 0.021 µM).

Q: And the “% of inhibition” value [2, 8]?
A: Its value is 100±0%.

Q: What about the “% of inhibition” value [2, 9] of the same compound?
A: The value was 100±0%.

Q: What about the “% of inhibition” value [2, 10] of the same compound?
A: Its value is 100±0%.

Q: And the “% of inhibition” value [2, 11]?
A: The value was 94±6%.

Q: What about the Survival rate ([3]; 1.0 mg/kg p.o.) of the same compound?
A: The Survival rate was 70.0%.

Q: And the “number of survivors/number of employed animals” value ([3]; 1.0 mg/kg p.o.)?
A: The value was 7/10.

Q: What about the Survival rate ([3]; 3.0 mg/kg p.o.) of the same compound?
A: The Survival rate was 100.0%.

Q: And the “number of survivors/number of employed animals” value ([3]; 3.0 mg/kg p.o.)?
A: The value was 10/10.

Q: And the “Inhibition (foot edema)” value ([4]; 0.1 mg/kg oral)?
A: Its value is 55%.

Q: What about the “Inhibition (foot edema)” value ([4]; 1 mg/kg oral) of the same compound?
A: Its value is 78%.

Q: What about the “Inhibition (foot edema)” value ([4]; 3 mg/kg oral) of the same compound?
A: The value was 75%.

Q: With `Cc1nnc2n1-c1sc(CCc3ccc(-c4ccccc4)cc3)cc1C(c1ccccc1Cl)=NC2` [Compound F, 4-(2-chlorophenyl)-2-[2-(4-phenylphenyl)ethyl]-9-methyl-6H-thieno[3,2-f][1,2,4]triazolo[4,3-a][1,4]diazepine] as the compound, how does the IC50 [1] read?
A: Its IC50 is 0.01 to 0.03 µg/mL (≈ 0.0202 to 0.0606 µM).

Q: For `Cc1nnc2n1-c1sc(CCc3ccccc3)cc1C(c1ccccc1Cl)=NC2` [Compound G, 4-(2-chlorophenyl)-2-(2-phenylethyl)-9-methyl-6H-thieno[3,2-f][1,2,4]triazolo[4,3-a][1,4]diazepine], which IC50 [1] is on record?
A: Its IC50 is 0.03 to 0.1 µg/mL (≈ 0.0716 to 0.239 µM).

Q: For `Cc1nnc2n1-c1sc(Cc3ccc(CC(C)C)cc3)cc1C(c1ccccc1Cl)=NC2` [Compound H, 4-(2-chlorophenyl)-2-(4-isobutylbenzyl)-9-methyl-6H-thieno[3,2-f][1,2,4]triazolo[4,3-a][1,4]diazepine], which IC50 [1] is on record?
A: Its IC50 is 0.003 to 0.01 µg/mL (≈ 0.00651 to 0.0217 µM).

Q: Which IC50 [1] does the source give for `Cc1nnc2n1-c1sc(CCCc3ccc(CC(C)C)cc3)cc1C(c1ccccc1Cl)=NC2` [Compound I, 4-(2-chlorophenyl)-2-[3-(4-isobutylphenyl)propyl]9-methyl-6H-thieno[3,2-f][1,2,4]triazolo[4,3-a][1,4]diazepine] here?
A: Its IC50 is 0.01 µg/mL (≈ 0.0204 µM).

Q: With `CCc1nnc2n1-c1sc(CCc3ccc(CC(C)C)cc3)cc1C(c1ccccc1Cl)=NC2` [Compound J, 4-(2-chlorophenyl)-9-ethyl-2-[2-(4-isobutylphenyl)ethyl]-6H-thieno[3,2-f][1,2,4]triazolo[4,3-a][1,4]diazepine] as the compound, how does the IC50 [1] read?
A: The IC50 was 0.01 to 0.03 µg/mL (≈ 0.0204 to 0.0613 µM).

Q: With `Cc1nnc2n1-c1sc(CCc3ccc(CC(C)C)cc3)cc1C(c1ccccc1Cl)=NC2C` (centres unmarked) [Compound K, 4-(2-chlorophenyl)-2-[2-(4-isobutylphenyl)ethyl]-6,9-dimethyl-6H-thieno[3,2-f][1,2,4]triazolo[4,3-a][1,4]diazepine] as the compound, how does the IC50 [1] read?
A: The IC50 was 0.01 to 0.03 µg/mL (≈ 0.0204 to 0.0613 µM).

Q: With `CCCCc1ccc(CCc2cc3c(s2)-n2c(C)nnc2C(C)N=C3c2ccccc2Cl)cc1` (centres unmarked) [Compound L, 4-(2-chlorophenyl)-2-[2-(4-n-butylphenyl)ethyl]6,9-dimethyl-6H-thieno[3,2-f][1,2,4]triazolo[4,3-a][1,4]diazepine] as the compound, how does the IC50 [1] read?
A: Its IC50 is 0.01 to 0.03 µg/mL (≈ 0.0204 to 0.0613 µM).

Q: For `CCc1cc2c(s1)-n1c(C)nnc1CN=C2c1ccccc1Cl` [Etizolam, 6-(o-chlorophenyl)-8-ethyl-1-methyl-4H-s-triazolo[3,4-c]thieno[2,3-e][1,4]diazepine, reference compound], which IC50 [1] is on record?
A: The IC50 was 1.3 µg/mL (≈ 3.79 µM).

Q: And the “% of inhibition” value ([2]; 10 mg/kg p.o., printed once for the 1, 3, 6, 24 hours columns)?
A: The value was “no effect”.

Q: What about the “Inhibition (foot edema)” value ([4]; 10 mg/kg oral) of the same compound?
A: Its value is 38%.

Q: What about the “Inhibition (foot edema)” value ([4]; 25 mg/kg oral) of the same compound?
A: The value was 54%.

Q: And the “affinity for the benzodiazepine receptor” value [5]?
A: Its value is “high affinity”.

Q: And the “pharmacological activities against the central nervous system” value [6]?
A: Its value is “antianxiety or anticonvulsant activities”.

Q: What about the “antagonistic activity on PAF” value [7] of the same compound?
A: Its value is “exhibits antagonistic activity”.
